From PubChem BioAssay (NCI)
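Growth conditions: 96-well plates. Treatment: test compound, 48 hours, 5 concentrations. Analysis: linear interpolation between bracketing concentrations; unreached endpoints set to highest concentration. The concentration for 50% growth inhibition is given as GI50. TGI denotes the concentration required for complete inhibition of growth.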

Tests used:
Assay in all cases: growth of human tumour cells (NCI), 48 h
786-0 renal = tested on: 786-0 renal
A498 renal = tested on: A498 renal
A549 NSCLC = tested on: A549 NSCLC
ACHN renal = tested on: ACHN renal
BT-549 breast = tested on: BT-549 breast
CAKI-1 renal = tested on: CAKI-1 renal
CCRF-CEM leukemia = tested on: CCRF-CEM leukemia
COLO 205 colon = tested on: COLO 205 colon
DU-145 prostate = tested on: DU-145 prostate
EKVX NSCLC = tested on: EKVX NSCLC
HCC-2998 colon = tested on: HCC-2998 colon
HCT-116 colon = tested on: HCT-116 colon
HCT-15 colon = tested on: HCT-15 colon
HL-60(TB) leukemia = tested on: HL-60(TB) leukemia
HOP-62 NSCLC = tested on: HOP-62 NSCLC
HOP-92 NSCLC = tested on: HOP-92 NSCLC
HS 578T breast = tested on: HS 578T breast
HT29 colon = tested on: HT29 colon
IGROV1 ovarian = tested on: IGROV1 ovarian
K-562 leukemia = tested on: K-562 leukemia
KM12 colon = tested on: KM12 colon
LOX IMVI melanoma = tested on: LOX IMVI melanoma
M14 melanoma = tested on: M14 melanoma
MALME-3M melanoma = tested on: MALME-3M melanoma
MCF7 breast = tested on: MCF7 breast
MDA-MB-231 breast = tested on: MDA-MB-231 breast
MDA-MB-435 = tested on: MDA-MB-435
MDA-MB-468 breast = tested on: MDA-MB-468 breast
MOLT-4 leukemia = tested on: MOLT-4 leukemia
NCI-H226 lung = tested on: NCI-H226 lung
NCI-H23 lung = tested on: NCI-H23 lung
NCI-H460 lung = tested on: NCI-H460 lung
NCI-H522 lung = tested on: NCI-H522 lung
NCI/ADR-RES ovarian = tested on: NCI/ADR-RES ovarian
OVCAR-3 ovarian = tested on: OVCAR-3 ovarian
OVCAR-4 ovarian = tested on: OVCAR-4 ovarian
OVCAR-5 ovarian = tested on: OVCAR-5 ovarian
OVCAR-8 ovarian = tested on: OVCAR-8 ovarian
PC-3 prostate = tested on: PC-3 prostate
RPMI-8226 leukemia = tested on: RPMI-8226 leukemia
RXF 393 renal = tested on: RXF 393 renal
SF-268 CNS = tested on: SF-268 CNS
SF-295 CNS = tested on: SF-295 CNS
SF-539 CNS = tested on: SF-539 CNS
SK-MEL-2 melanoma = tested on: SK-MEL-2 melanoma
SK-MEL-28 melanoma = tested on: SK-MEL-28 melanoma
SK-MEL-5 melanoma = tested on: SK-MEL-5 melanoma
SK-OV-3 ovarian = tested on: SK-OV-3 ovarian
SN12C renal = tested on: SN12C renal
SNB-19 CNS = tested on: SNB-19 CNS
SR leukemia = tested on: SR leukemia
SW-620 colon = tested on: SW-620 colon
T-47D breast = tested on: T-47D breast
TK-10 renal = tested on: TK-10 renal
U251 CNS = tested on: U251 CNS
UACC-257 melanoma = tested on: UACC-257 melanoma
UACC-62 melanoma = tested on: UACC-62 melanoma
UO-31 renal = tested on: UO-31 renal

SMILES: COc1cccc(/C=C/C(=O)c2ccc(OC)c(S(N)(=O)=O)c2)c1
- GI50 (786-0 renal): 2900 nM
- TGI (786-0 renal): 11 µM
- GI50 (A498 renal): 14.3 µM
- TGI (A498 renal): 28 µM
- GI50 (A549 NSCLC): 2640 nM
- TGI (A549 NSCLC): 11.5 µM
- GI50 (ACHN renal): 1850 nM
- TGI (ACHN renal): 3.7 µM
- GI50 (BT-549 breast): 2520 nM
- TGI (BT-549 breast): 8.85 µM
- GI50 (CAKI-1 renal): 4.16 µM
- TGI (CAKI-1 renal): 16.1 µM
- GI50 (CCRF-CEM leukemia): 2510 nM
- TGI (CCRF-CEM leukemia): 6.23 µM
- GI50 (COLO 205 colon): 2930 nM
- TGI (COLO 205 colon): 11 µM
- GI50 (DU-145 prostate): 5.73 µM
- TGI (DU-145 prostate): 18.1 µM
- GI50 (EKVX NSCLC): 8.05 µM
- TGI (EKVX NSCLC): 20.9 µM
- GI50 (HCC-2998 colon): 2880 nM
- TGI (HCC-2998 colon): 12.1 µM
- GI50 (HCT-116 colon): 1590 nM
- TGI (HCT-116 colon): 3.31 µM
- GI50 (HCT-15 colon): 1270 nM
- TGI (HCT-15 colon): 3.34 µM
- GI50 (HL-60(TB) leukemia): 1880 nM
- TGI (HL-60(TB) leukemia): 5.18 µM
- GI50 (HOP-62 NSCLC): 2700 nM
- TGI (HOP-62 NSCLC): 10.2 µM
- GI50 (HOP-92 NSCLC): 6.37 µM
- TGI (HOP-92 NSCLC): 20.2 µM
- GI50 (HS 578T breast): 15.5 µM
- TGI (HS 578T breast): 50.6 µM
- GI50 (HT29 colon): 1910 nM
- TGI (HT29 colon): 4.05 µM
- GI50 (IGROV1 ovarian): 2980 nM
- TGI (IGROV1 ovarian): 12.5 µM
- GI50 (K-562 leukemia): 2120 nM
- TGI (K-562 leukemia): 6.4 µM
- GI50 (KM12 colon): 2120 nM
- TGI (KM12 colon): 5.11 µM
- GI50 (LOX IMVI melanoma): 1640 nM
- TGI (LOX IMVI melanoma): 3.47 µM
- GI50 (M14 melanoma): 4.42 µM
- TGI (M14 melanoma): 17.7 µM
- GI50 (MALME-3M melanoma): 12.4 µM
- TGI (MALME-3M melanoma): 25.1 µM
- GI50 (MCF7 breast): 2870 nM
- TGI (MCF7 breast): 12.5 µM
- GI50 (MDA-MB-231 breast): 3.8 µM
- TGI (MDA-MB-231 breast): 13.6 µM
- GI50 (MDA-MB-435): 4.66 µM
- TGI (MDA-MB-435): 16.5 µM
- GI50 (MDA-MB-468 breast): 1990 nM
- TGI (MDA-MB-468 breast): 7.17 µM
- GI50 (MOLT-4 leukemia): 2120 nM
- TGI (MOLT-4 leukemia): 5.16 µM
- GI50 (NCI-H226 lung): 2720 nM
- TGI (NCI-H226 lung): 11.1 µM
- GI50 (NCI-H23 lung): 4.66 µM
- TGI (NCI-H23 lung): 16.9 µM
- GI50 (NCI-H460 lung): 3.45 µM
- TGI (NCI-H460 lung): 13.8 µM
- GI50 (NCI-H522 lung): 2480 nM
- TGI (NCI-H522 lung): 8.39 µM
- GI50 (NCI/ADR-RES ovarian): 2830 nM
- TGI (NCI/ADR-RES ovarian): 9.24 µM
- GI50 (OVCAR-3 ovarian): 2900 nM
- TGI (OVCAR-3 ovarian): 10.8 µM
- GI50 (OVCAR-4 ovarian): 4.87 µM
- TGI (OVCAR-4 ovarian): 20.1 µM
- GI50 (OVCAR-5 ovarian): 2610 nM
- TGI (OVCAR-5 ovarian): 10.8 µM
- GI50 (OVCAR-8 ovarian): 2960 nM
- TGI (OVCAR-8 ovarian): 12 µM
- GI50 (PC-3 prostate): 5.25 µM
- TGI (PC-3 prostate): 18.4 µM
- GI50 (RPMI-8226 leukemia): 2540 nM
- TGI (RPMI-8226 leukemia): 7.24 µM
- GI50 (RXF 393 renal): 3.39 µM
- TGI (RXF 393 renal): 15.1 µM
- GI50 (SF-268 CNS): 4.85 µM
- TGI (SF-268 CNS): 18.9 µM
- GI50 (SF-295 CNS): 2900 nM
- TGI (SF-295 CNS): 12.6 µM
- GI50 (SF-539 CNS): 1960 nM
- TGI (SF-539 CNS): 4.56 µM
- GI50 (SK-MEL-2 melanoma): 14 µM
- TGI (SK-MEL-2 melanoma): 27.3 µM
- GI50 (SK-MEL-28 melanoma): 9.04 µM
- TGI (SK-MEL-28 melanoma): 21.1 µM
- GI50 (SK-MEL-5 melanoma): 5.23 µM
- TGI (SK-MEL-5 melanoma): 18 µM
- GI50 (SK-OV-3 ovarian): 10.1 µM
- TGI (SK-OV-3 ovarian): 21.9 µM
- GI50 (SN12C renal): 2740 nM
- TGI (SN12C renal): 10.9 µM
- GI50 (SNB-19 CNS): 4.82 µM
- TGI (SNB-19 CNS): 17.2 µM
- GI50 (SR leukemia): 1260 nM
- TGI (SR leukemia): 4.09 µM
- GI50 (SW-620 colon): 3.16 µM
- TGI (SW-620 colon): 12 µM
- GI50 (T-47D breast): 2970 nM
- TGI (T-47D breast): 14.2 µM
- GI50 (TK-10 renal): 2810 nM
- TGI (TK-10 renal): 13.1 µM
- GI50 (U251 CNS): 2500 nM
- TGI (U251 CNS): 9.83 µM
- GI50 (UACC-257 melanoma): 10.2 µM
- TGI (UACC-257 melanoma): 22.5 µM
- GI50 (UACC-62 melanoma): 4.16 µM
- TGI (UACC-62 melanoma): 16.9 µM
- GI50 (UO-31 renal): 2030 nM
- TGI (UO-31 renal): 9.93 µM
